Measurements as given in patent US20050124634A1, “1,4-dihydropyridine compounds, pharmaceutical compositions, and methods for the treatment of cardiovascular disease” (MYOGEN, INC., priority 2003, published 2005).
pEC50, pIC50: −log10 of the molar value.

system: secretion of atrial natriuretic factor; test: Anti-hypertrophic activity in NRVM, ANF ELISA (ANF secretion); format: cell-based, rat; conditions: NRVM, hypertrophy induced by pharmacological stimuli; read-out: IC50 of the ANF ELISA (antihypertrophic activity)
Method: Anti-hypertrophic Activity of Racemic Compound 1 and Purified Enantiomers of Compound 1. Neonatal rat ventricular myocytes (NRVM) were isolated from 1 to 3 day-old Sprague-Dawley rats using enzymatic digestion and myocyte enrichment techniques. NRVM were cultured in serum-containing media for 18 hours. For the continuation of culture, serum-free media was used. Hypertrophy of NRVM was induced using pharmacological stimuli, including phenylephrine, endothelin-1, and […]. Hypertrophic responses were determined using methods including the following: measurement of total cellular protein; secretion of atrial natriuretic factor; determination of cell volume; determination of the expression of so-called fetal genes such as atrial natriuretic factor, beta-myosin heavy chain and alpha-skeletal actin. ANF secretion was the most sensitive assay for measuring hypertrophy, and the IC50 of the ANF ELISA was the measurement used to determine antihypertrophic activity.

Structure (SMILES)	pIC50
CC(=O)C1=C(C)NC(SCC(=O)c2cccc([N+](=O)[O-])c2)=C(C#N)C1c1ccccc1Cl (stereo not drawn) [R-enantiomer]	5.96
CC(=O)C1=C(C)NC(SCC(=O)c2cccc([N+](=O)[O-])c2)=C(C#N)C1c1ccccc1Cl (stereo not drawn) [S-enantiomer]	6.41

system: α-MyHC protein levels; test: α-MyHC cytoblot assay in neonatal rat ventricular myocytes (NRVM); format: cell-based; conditions: 10 mM Cpd; NRVM, 3 days
Method: FIG. 1 Concentration-dependent effect of Compound 1 on α-MyHC protein levels in the cytoblot assay. NRVM are cultured for 3 days in serum-free medium in the presence of differing amounts of Compound 1. At the end of the culture period, NRVM are fixed and analyzed for α-MyHC protein levels using the BA-G5 monoclonal antibody specific for α-MyHC. Results are collected as RLU using a Packard Fusion Plate reader, and normalized to the signal from samples cultured in the absence of compound (control, set to 100%).
Preparation and culture of neonatal rat ventricular myocytes (NRVM) was performed by removing hearts from 1-3 day old rat neonatal pups, along with the atria and lungs. The ventricles were cut into smaller pieces and digested 3 times with collagenase for 20-30 min at 37° C. The myocytes were then separated from other cell types using a Percoll gradient. The myocyte layer was collected, washed 2 times, and plated on tissue culture grade 10 cm Petri dishes for 1-2 hrs. The non-adherent cells (myocytes) were removed and plated in Costar clear view 96 well plates coated with 0.2% gelatin for at least 2 hrs. The gelatin solution was removed, and the myocytes were resuspended in DMEM high glucose media (Mediatech) containing 10% charcoal/dextran treated FBS (Hyclone) and 1% Penicillin-Streptomycin-Glutamine (PSG, Gibco). Ten thousand NRVM were plated per well in a 100 μl volume, and incubated overnight at 37° C. in 5% CO2 in air. The following day, the media was replaced with 100 μl of serum-free DMEM high glucose medium supplemented with PSG and 0.3% Nutridoma-SP (Roche).
Compounds were reconstituted in DMSO at 30 mM, and aliquots were stored at −20° C. A 1:1000 dilution was prepared in serum-free DMEM medium supplemented with PSG and 0.3% Nutridoma, and sonicated for 5 min at room temperature. After sonication, additional 3 fold dilutions were prepared in the same medium. Diluted compound was then added to the NRVM cultures in a volume of 100 μl. A 100 mM thyroid hormone stock solution (T3, Calbiochem) was prepared in 100 mM NaOH and added at a final concentration of 3 nM in DMEM medium supplemented with PSG and 0.3% Nutridoma-SP (Roche). NRVM were cultured for 3 days before detection of α-myosin heavy chain (α-MyHC) protein levels in the cytoblot assay.
For the α-MyHC cytoblot assay, NRVM cultures were analyzed for α-MyHC protein levels after 3 days of incubation. NRVM were washed 2 times with PBS, fixed with methanol for 30 min at 4° C., and washed an additional 2 times with PBS. Blocking solution consisting of PBS with 1% bovine serum albumin (BSA, Fisher Biotech) was added for 1 hr at room temperature before addition of a saturating amount of supernatant containing an α-MyHC specific antibody for 60 min at room temperature (BA-G5 hybridoma, ATTC). Two washes were performed with PBS/1% BSA, and a 1:500 dilution of HRP-goat anti-mouse IgG (Southern Biotech) diluted in PBS/1% BSA was added for 60 min at room temperature. Excess antibody was removed with 3 PBS washes, and a chemiluminescent substrate was added (Pierce SuperSignal West Pico Chemiluminscent Substrate) for 5 min before quantitation on a Packard Fusion Plate Reader.
As shown above in Table 1, Compound 1 increased α-MyHC protein levels as determined by an α-MyHC cytoblot assay. Compound 1 was added to NRVM at concentration ranging from 3 nM to 30 μM. After 3 days of incubation with NRVM, α-MyHC protein levels were detected in the cytoblot assay and quantitated (FIG. 1). […] An increase in α-MyHC protein levels was first detected beginning at 30 nM, with a maximal response observed at 3 μM. In six independent experiments, the concentration of Compound 1 that gave a half-maximal response was on average 60 nM.

Structure (SMILES)	% increase of a-MyHC over baseline at 10 mM Cpd [%]
CC(=O)C1=C(C)NC(SCC(=O)c2cccc([N+](=O)[O-])c2)=C(C#N)C1c1cccc(C)c1 (racemic) [Compound 2]	95
CC(=O)C1=C(C)NC(SCC(=O)c2cc(Cl)ccc2Cl)=C(C#N)C1c1ccccc1Cl (racemic) [Compound 3]	314
CC(=O)C1=C(C)NC(SCC(=O)c2ccccc2Cl)=C(C#N)C1c1ccccc1Cl (racemic) [Compound 4]	135
CC(=O)C1=C(C)NC(SCC(=O)c2ccc(Cl)cc2)=C(C#N)C1c1ccccc1Cl (racemic) [Compound 5]	52
CC(=O)C1=C(C)NC(SCC(=O)c2ccc(Br)cc2)=C(C#N)C1c1ccccc1Cl (racemic) [Compound 6]	53
CC(=O)C1=C(C)NC(SCC(=O)c2ccc(Cl)c(Cl)c2)=C(C#N)C1c1ccc(Cl)cc1 (racemic) [Compound 7]	43
CC(=O)C1=C(C)NC(SCC(=O)c2ccc(Cl)cc2Cl)=C(C#N)C1c1ccc(Cl)cc1 (racemic) [Compound 8]	29
CC(=O)C1=C(C)NC(SCC(=O)c2ccccc2Cl)=C(C#N)C1c1ccc(Cl)cc1 (racemic) [Compound 9]	80
CC(=O)C1=C(C)NC(SCC(=O)c2ccc(Cl)c(Cl)c2)=C(C#N)C1c1ccc(F)cc1 (racemic) [Compound 10]	88
CC(=O)C1=C(C)NC(SCC(=O)c2ccc(Cl)cc2Cl)=C(C#N)C1c1ccc(F)cc1 (racemic) [Compound 11]	51
CC(=O)C1=C(C)NC(SCC(=O)c2ccc(Br)cc2)=C(C#N)C1c1cccc([N+](=O)[O-])c1 (racemic) [Compound 12]	34
CC(=O)C1=C(C)NC(SCC(=O)c2ccc(Cl)c(Cl)c2)=C(C#N)C1c1ccccc1 (racemic) [Compound 13]	95
CC(=O)C1=C(C)NC(SCC(=O)c2ccc([N+](=O)[O-])cc2)=C(C#N)C1c1ccccc1Cl (racemic) [Compound 14]	24
CC(=O)C1=C(C)NC(SCC(=O)c2ccc(Cl)cc2Cl)=C(C#N)C1c1ccccc1 (racemic) [Compound 15]	81
CC(=O)C1=C(C)NC(SCC(=O)c2cccc(Br)c2)=C(C#N)C1c1ccccc1 (racemic) [Compound 16]	143
CC(=O)C1=C(C)NC(SCC(=O)c2ccc(Cl)cc2)=C(C#N)C1c1ccccc1 (racemic) [Compound 17]	29
CC(=O)C1=C(C)NC(SCC(=O)c2ccc(F)cc2)=C(C#N)C1c1ccccc1 (racemic) [Compound 18]	37

Structure (SMILES)	% increase of a-MyHC over baseline at 10 mM Cpd [%]
CC(=O)C1=C(C)NC(SCC(=O)c2ccccc2)=C(C#N)C1c1ccccc1 (racemic) [Compound 19]	71
CC(=O)C1=C(C)NC(SCC(=O)c2ccc(Cl)c(Cl)c2)=C(C#N)C1c1cccc(C)c1 (racemic) [Compound 20]	79
CC(=O)C1=C(C)NC(SCC(=O)c2ccc(Cl)c(Cl)c2)=C(C#N)C1c1ccccc1Cl (racemic) [Compound 21]	126
CC(=O)C1=C(C)NC(SCC(=O)c2ccc(Cl)cc2Cl)=C(C#N)C1c1ccccc1Cl (racemic) [Compound 22]	81
CC(=O)C1=C(C)NC(SCC(=O)c2cc(Cl)ccc2Cl)=C(C#N)C1c1ccc(Br)cc1 (racemic) [Compound 23]	70
CCc1ccc(C2C(C#N)=C(SCC(=O)c3cccc([N+](=O)[O-])c3)NC(C)=C2C(C)=O)cc1 (racemic) [Compound 24]	130
CC(=O)C1=C(C)NC(SCC(=O)c2cccc([N+](=O)[O-])c2)=C(C#N)C1c1ccc(Cl)cc1 (racemic) [Compound 25]	139
CC(=O)C1=C(C)NC(SCC(=O)c2ccccc2)=C(C#N)C1c1ccccc1Cl (racemic) [Compound 26]	161
CC(=O)C1=C(C)NC(SCC(=O)c2cc(Cl)ccc2Cl)=C(C#N)C1c1ccccc1 (racemic) [Compound 27]	303
CC(=O)C1=C(C)NC(SCC(=O)c2ccc([N+](=O)[O-])cc2)=C(C#N)C1c1ccccc1 (racemic) [Compound 28]	125
CC(=O)C1=C(C)NC(SCC(=O)c2ccc(Cl)c(Cl)c2)=C(C#N)C1c1cccc([N+](=O)[O-])c1 (racemic) [Compound 29]	201
CC(=O)C1=C(C)NC(SCC(=O)c2cccc([N+](=O)[O-])c2)=C(C#N)C1c1cccs1 (racemic) [Compound 30]	156
CC(=O)C1=C(C)NC(SCC(=O)c2ccc(Cl)c(Cl)c2)=C(C#N)C1c1cccs1 (racemic) [Compound 31]	151
CC(=O)C1=C(C)NC(SCC(=O)c2ccc(Cl)cc2Cl)=C(C#N)C1c1cccs1 (racemic) [Compound 32]	45
CC(=O)C1=C(C)NC(SCC(=O)c2cc(Cl)ccc2Cl)=C(C#N)C1c1cccs1 (racemic) [Compound 33]	181
CC(=O)C1=C(C)NC(SCC(=O)c2ccc(Cl)cc2Cl)=C(C#N)C1c1ccco1 (racemic) [Compound 34]	97
CC(=O)C1=C(C)NC(SCC(=O)c2ccc([N+](=O)[O-])cc2)=C(C#N)C1c1ccco1 (racemic) [Compound 36]	115

same assay, conditions: at 3 µM; NRVM, 3 days

Structure (SMILES)	% increase of a-MyHC over baseline (at 3 µM)
CC(=O)C1=C(C)NC(SCC(=O)c2ccc(Cl)c(Cl)c2)=C(C#N)C1c1ccco1 (racemic) [Compound 35]	125 (at 3 mM) %

same assay, conditions: tested according to Example 1; read-out: MPE50 for increasing α-MyHC protein levels

Structure (SMILES)	pEC50
CC(=O)C1=C(C)NC(SCC(=O)c2cccc([N+](=O)[O-])c2)=C(C#N)C1c1ccccc1Cl (stereo not drawn) [R-enantiomer]	6.10
CC(=O)C1=C(C)NC(SCC(=O)c2cccc([N+](=O)[O-])c2)=C(C#N)C1c1ccccc1Cl (stereo not drawn) [S-enantiomer]	< 4.49
